Structures are written as SMILES.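 Cells were grown in 96-well plates and exposed to each compound for 48 hours at five concentrations; endpoints were interpolated linearly between bracketing concentrations, or set to the highest concentration if not reached. At the TGI there is no net growth.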 Where a SMILES comes first, the peptide text is derived from it. [ ]: non-standard residue; d: D form. The star is where a group is joined. ξ: configuration not given here. dThr(3ξ) = CC(O)[C@@H](N)C(=O)O; dNMeL = CN[C@H](CC(C)C)C(=O)O; OBn = c1ccc(CO*)cc1; ξLac = CC(O)C(=O)O Bounds are passed on as bounds.

What all share (experiment): growth of human tumour cells (NCI), 48 h
Experiment [1] has as its system UO-31 renal.
The test system of experiment [2] is HS 578T breast.
The subject of experiment [3] is MCF7 breast.
Experiment [4] deals with RXF 393 renal.
Experiment [5] deals with SNB-19 CNS.
The test system of experiment [6] is OVCAR-8 ovarian.
In experiment [7] the test system is HCT-116 colon.
Experiment [8] has as its system NCI-H522 lung.
Experiment [9] relates to T-47D breast.
The subject of experiment [10] is RPMI-8226 leukemia.
Experiment [11] concerns SK-MEL-5 melanoma.
The test system of experiment [12] is HCC-2998 colon.
The subject of experiment [13] is IGROV1 ovarian.
Experiment [14] has as its system DU-145 prostate.
Experiment [15] deals with OVCAR-4 ovarian.
Experiment [16] deals with OVCAR-5 ovarian.
Experiment [17] relates to SW-620 colon.
Experiment [18] relates to SN12C renal.
In experiment [19] the test system is EKVX NSCLC.
The subject of experiment [20] is NCI-H460 lung.

For the compound `CC(=O)OC(C)[C@@H](NC(=O)[C@@H](CC(C)C)N(C)C(=O)[C@@H]1CCCN1C(=O)C(C)O)C(=O)OCc1ccccc1` (stereo not given in full) (H-[ξLac]P[dNMeL][dThr(3ξ)](Ac)-OBn), the TGI in experiment [1], in [2], in [3], in [4], in experiment [5] and in [6] was more than 100 µM each time. Besides, the TGI in [7], in experiment [8], in experiment [9], in experiment [10], in [11] and in experiment [12] was more than 100 µM each time. Further, the TGI in experiment [13], in experiment [14], in [15], in [16], in experiment [17] and in experiment [18] was more than 100 µM each time. Also, the TGI in experiment [19] and in experiment [20] was more than 100 µM in each case.
As to `O=C1c2cccnc2S(=O)N1Cc1ccccc1` (stereo not given), the TGI in experiment [1], in experiment [2], in experiment [3], in [4], in [5] and in experiment [6] was more than 100 µM each time. The TGI in experiment [7], in experiment [8], in experiment [9], in experiment [10], in [11] and in experiment [12] was more than 100 µM each time. The TGI in experiment [13], in [14], in experiment [15], in [16], in [17] and in [18] was more than 100 µM throughout. Moreover, the TGI in [19] and in [20] was more than 100 µM throughout.
Consider `c1ccc(C2C3=C(CCCC3)Nc3nc4cc5ccccc5cc4n32)cc1` (stereo not given), for which the TGI in [1], in experiment [2], in experiment [3], in [4], in experiment [5] and in [6] was more than 100 µM in each case. Moreover, the TGI in [7], in experiment [8], in [9], in experiment [10], in [11] and in experiment [12] was more than 100 µM each time. Also, the TGI in experiment [13], in experiment [14], in experiment [15], in [16], in experiment [17] and in [18] was more than 100 µM in each case. The TGI in [19] and in experiment [20] was more than 100 µM in each case.
As to `CCCCCC(O)[C@H]1C(=O)C[C@@H](O[Si](C)(C)C(C)(C)C)[C@@H]1/C=C/CCOCc1ccccc1` (stereo not given in full), the TGI in experiment [1] was 27.5 µM; in experiment [2], 26.4 µM; in [3] it was more than 54.7 µM; in [4], 31.3 µM; in experiment [5] it was 28.5 µM; in experiment [6], 28.4 µM. The TGI was more than 45.5 µM in [7]; 15 µM in experiment [8]; 40.1 µM in [9]; more than 44.8 µM in experiment [10]; 37.9 µM in experiment [11]; 30.9 µM in experiment [12]. The TGI in experiment [13] came out at 25.6 µM; in experiment [14], 46.4 µM; in experiment [15] it was 34.1 µM; in experiment [16], 36.6 µM; in [17] it was 41.4 µM; in [18], 38.4 µM. The TGI in experiment [19] worked out at 35.2 µM; in experiment [20], 30.5 µM.
Consider `CN(C)CCn1c(=O)c2ccc3c4c(nn3CCN(C)C)c3cc(N)ccc3n(c1=O)c24`, for which the TGI amounted to 0.0501 µM in experiment [1]; 1.03 µM in experiment [2]; 1.17 µM in [3]; 0.173 µM in [4]; 0.455 µM in experiment [5]; 0.454 µM in experiment [6]. Moreover, the TGI in experiment [7] came to 0.0716 µM; in experiment [8], 0.27 µM; in [9], 0.849 µM; in experiment [10], 60.7 µM; in experiment [11] it was 0.237 µM; in [12], 1.04 µM. The TGI in experiment [13] stood at 4.45 µM; in experiment [14] it was 0.438 µM; in experiment [15], 0.0511 µM; in experiment [16] it was 0.111 µM; in experiment [17] it was 1.87 µM; in experiment [18], 0.069 µM. Besides, the TGI in [19] came to 0.237 µM; in [20] it was 0.0904 µM.
As for `COC(=O)c1ccc(N=NN(C)COc2ccc(C#N)cc2)cc1`, the TGI in [1], in experiment [2], in experiment [3], in experiment [4], in experiment [5] and in experiment [6] was more than 100 µM throughout. For the same compound, the TGI in experiment [7], in [8], in experiment [9], in experiment [10], in [11] and in experiment [12] was more than 100 µM throughout. Besides, the TGI in experiment [13], in experiment [14], in experiment [15], in experiment [16], in [17] and in experiment [18] was more than 100 µM throughout. For the same compound, the TGI in [19] and in experiment [20] was more than 100 µM in each case.
With `CC1=C2C(=O)OCC23C=COC3(C)O1` (stereo not given), the TGI in experiment [1], in experiment [2], in experiment [3], in experiment [4], in experiment [5] and in experiment [6] was more than 100 µM each time. In addition, the TGI in experiment [7] is more than 100 µM; in experiment [8] it was 78.9 µM; in experiment [9], more than 100 µM; in experiment [10], more than 100 µM; in experiment [11], 35.6 µM; in [12] it was more than 100 µM. For the same compound, the TGI in experiment [13], in experiment [14], in experiment [15], in experiment [16], in experiment [17] and in experiment [18] was more than 100 µM each time. Besides, the TGI in [19] and in experiment [20] was more than 100 µM throughout.

The values are drawn from PubChem BioAssay (NCI).
